Reference: ChEMBL document CHEMBL1201862, “PubChem BioAssay data set” (2004)
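A five-concentration, 48-hour dose response in 96-well plates underlies each endpoint, interpolated linearly between surrounding concentrations. At the GI50, growth is halved.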 The source made the active and inactive calls. Cut-off read from the data, not from the text of the source: active = GI50 up to about 1.1 µM and inactive = higher.

Assays:
Assay in all cases: NCI-60 cell line screen, 48 h
U-251 = system: U-251
SN12C = system: SN12C
OVCAR-4 = system: OVCAR-4
XF498 = system: XF498
M14 = system: M14
786-0 = system: 786-0
OVCAR-3 = system: OVCAR-3
SK-OV-3 = system: SK-OV-3
SNB-78 = system: SNB-78
UACC-257 = system: UACC-257
UO-31 = system: UO-31
COLO 205 = system: COLO 205
KM-20L2 = system: KM-20L2
NCI-H460 = system: NCI-H460
HT-29 = system: HT-29
IGROV-1 = system: IGROV-1
KM12 = system: KM12
CAKI-1 = system: CAKI-1
ACHN = system: ACHN
HOP-62 = system: HOP-62
UACC-62 = system: UACC-62
SK-MEL-5 = system: SK-MEL-5
CCRF-CEM = system: CCRF-CEM
SF-539 = system: SF-539
K562 = system: K562
SK-MEL-28 = system: SK-MEL-28
M19-MEL = system: M19-MEL
SNB-19 = system: SNB-19
HCT-15 = system: HCT-15
OVCAR-8 = system: OVCAR-8
SW-620 = system: SW-620
RPMI-8226 = system: RPMI-8226
SNB-75 = system: SNB-75
A549 = system: A549
DLD-1 = system: DLD-1
NCI-H23 = system: NCI-H23
A498 = system: A498
DMS-114 = system: DMS-114
EKVX = system: EKVX
SF-295 = system: SF-295
SK-MEL-2 = system: SK-MEL-2
HCC 2998 = system: HCC 2998
RXF 631 = system: RXF 631
TK-10 = system: TK-10
LXFL 529 = system: LXFL 529
Malme-3M = system: Malme-3M
MOLT-4 = system: MOLT-4
OVCAR-5 = system: OVCAR-5
LOX IMVI = system: LOX IMVI
SF-268 = system: SF-268
DMS-273 = system: DMS-273
HOP-18 = system: HOP-18
HCT-116 = system: HCT-116
NCI-H522 = system: NCI-H522
SR = system: SR
RXF 393 = system: RXF 393
HL-60 = system: HL-60
HOP-92 = system: HOP-92

Compound: CCOc1ccc(NC2=NC(=O)C(CC(=O)Nc3ccc(Cl)cc3Cl)S2)cc1 (centres undefined)
- GI50 (U-251): > 100 µM (inactive)
- GI50 (SN12C): > 100 µM (inactive)
- GI50 (OVCAR-4): > 100 µM (inactive)
- GI50 (XF498): > 100 µM (inactive)
- GI50 (M14): > 100 µM (inactive)
- GI50 (786-0): > 100 µM (inactive)
- GI50 (OVCAR-3): > 100 µM (inactive)
- GI50 (SK-OV-3): > 100 µM (inactive)
- GI50 (SNB-78): > 100 µM (inactive)
- GI50 (UACC-257): > 100 µM (inactive)
- GI50 (UO-31): > 100 µM (inactive)
- GI50 (COLO 205): > 100 µM (inactive)
- GI50 (KM-20L2): > 100 µM (inactive)
- GI50 (NCI-H460): > 100 µM (inactive)
- GI50 (HT-29): > 100 µM (inactive)
- GI50 (IGROV-1): > 100 µM (inactive)
- GI50 (KM12): > 100 µM (inactive)
- GI50 (CAKI-1): > 100 µM (inactive)
- GI50 (ACHN): > 100 µM (inactive)
- GI50 (HOP-62): > 100 µM (inactive)
- GI50 (UACC-62): > 100 µM (inactive)
- GI50 (SK-MEL-5): > 100 µM (inactive)
- GI50 (CCRF-CEM): 21.6 µM (inactive)
- GI50 (SF-539): > 100 µM (inactive)
- GI50 (K562): > 100 µM (inactive)
- GI50 (SK-MEL-28): > 100 µM (inactive)
- GI50 (M19-MEL): > 100 µM (inactive)
- GI50 (SNB-19): > 100 µM (inactive)
- GI50 (HCT-15): > 100 µM
- GI50 (OVCAR-8): > 100 µM (inactive)
- GI50 (SW-620): > 100 µM (inactive)
- GI50 (RPMI-8226): > 100 µM (inactive)
- GI50 (SNB-75): > 100 µM (inactive)
- GI50 (A549): > 100 µM (inactive)
- GI50 (DLD-1): > 100 µM (inactive)
- GI50 (NCI-H23): > 100 µM (inactive)
- GI50 (A498): 68.7 µM (inactive)
- GI50 (DMS-114): > 100 µM (inactive)
- GI50 (EKVX): > 100 µM (inactive)
- GI50 (SF-295): > 100 µM (inactive)
- GI50 (SK-MEL-2): > 100 µM (inactive)
- GI50 (HCC 2998): > 100 µM (inactive)
- GI50 (RXF 631): > 100 µM (inactive)
- GI50 (TK-10): > 100 µM (inactive)
- GI50 (LXFL 529): > 100 µM (inactive)
- GI50 (Malme-3M): > 100 µM (inactive)
- GI50 (MOLT-4): 43.8 µM (inactive)
- GI50 (OVCAR-5): > 100 µM (inactive)
- GI50 (LOX IMVI): > 100 µM (inactive)
- GI50 (SF-268): > 100 µM (inactive)
- GI50 (DMS-273): > 100 µM (inactive)

Compound: CCCCOC(=O)NC(=O)c1cn(CCSCCOC(=O)NCCCCCCNC(=O)OCCSCCn2cc(C(=O)NC(=O)OCCCC)c(=O)[nH]c2=O)c(=O)[nH]c1=O
- GI50 (HOP-18): 31.6 µM (inactive)
- GI50 (U-251): 23.4 µM (inactive)
- GI50 (HCT-116): 73.8 µM (inactive)
- GI50 (SN12C): > 100 µM (inactive)
- GI50 (OVCAR-4): > 100 µM (inactive)
- GI50 (M14): 58.9 µM (inactive)
- GI50 (NCI-H522): 32.6 µM (inactive)
- GI50 (786-0): 32.3 µM (inactive)
- GI50 (SR): 54.6 µM (inactive)
- GI50 (OVCAR-3): > 100 µM (inactive)
- GI50 (SK-OV-3): 30.1 µM (inactive)
- GI50 (SNB-78): 90.4 µM (inactive)
- GI50 (UACC-257): > 100 µM (inactive)
- GI50 (UO-31): > 100 µM (inactive)
- GI50 (COLO 205): > 100 µM (inactive)
- GI50 (RXF 393): 22.5 µM (inactive)
- GI50 (KM-20L2): > 100 µM (inactive)
- GI50 (NCI-H460): > 100 µM (inactive)
- GI50 (HT-29): > 100 µM (inactive)
- GI50 (IGROV-1): 37.7 µM (inactive)
- GI50 (KM12): > 100 µM (inactive)
- GI50 (ACHN): > 100 µM (inactive)
- GI50 (HOP-62): 44.6 µM (inactive)
- GI50 (UACC-62): 41.5 µM (inactive)
- GI50 (SK-MEL-5): > 100 µM (inactive)
- GI50 (SF-539): > 100 µM (inactive)
- GI50 (K562): > 100 µM (inactive)
- GI50 (SK-MEL-28): > 100 µM (inactive)
- GI50 (M19-MEL): > 100 µM (inactive)
- GI50 (SNB-19): 26.6 µM (inactive)
- GI50 (HCT-15): > 100 µM
- GI50 (SW-620): > 10 µM (inactive)
- GI50 (RPMI-8226): > 100 µM (inactive)
- GI50 (SNB-75): 19 µM (inactive)
- GI50 (A549): > 100 µM (inactive)
- GI50 (DLD-1): > 100 µM (inactive)
- GI50 (NCI-H23): 27.4 µM (inactive)
- GI50 (A498): 29.4 µM (inactive)
- GI50 (DMS-114): 93.8 µM (inactive)
- GI50 (EKVX): 91.4 µM (inactive)
- GI50 (SF-295): 26.6 µM (inactive)
- GI50 (SK-MEL-2): 56.9 µM (inactive)
- GI50 (HL-60): > 100 µM (inactive)
- GI50 (HCC 2998): > 100 µM (inactive)
- GI50 (RXF 631): 38.4 µM (inactive)
- GI50 (TK-10): 30.1 µM (inactive)
- GI50 (LXFL 529): 27 µM (inactive)
- GI50 (Malme-3M): 29.7 µM (inactive)
- GI50 (OVCAR-5): > 100 µM (inactive)
- GI50 (LOX IMVI): > 100 µM (inactive)
- GI50 (SF-268): > 100 µM (inactive)
- GI50 (HOP-92): 21.5 µM (inactive)
- GI50 (DMS-273): 95.5 µM (inactive)
